ChEMBL document CHEMBL2440076, “New triarylpyrazoles as broad-spectrum anticancer agents: design, synthesis, and biological evaluation” (Eur J Med Chem, 2013)

What was measured:
Assay type in all cases: functional
MDA-MB-435 [1] = test: Growth inhibition of human MDA-MB-435 cells assessed as cell growth at 5X10'-5 M after 48 hrs by sulforhodamine B assay; conditions: MDA-MB-435, 48 h, read-out: Activity
Malme-3M = test: Growth inhibition of human MALME-3M cells assessed as cell growth at 5X10'-5 M after 48 hrs by sulforhodamine B assay; conditions: read-out: Activity
COLO 205 = test: Growth inhibition of human COLO205 cells assessed as cell growth at 5X10'-5 M after 48 hrs by sulforhodamine B assay; conditions: COLO 205, 48 h, read-out: Activity
BT-549 = test: Growth inhibition of human BT549 cells assessed as cell growth at 5X10'-6 M after 48 hrs by sulforhodamine B assay; conditions: BT-549, 48 h, read-out: Activity
MDA-MB-231 [2] = test: Growth inhibition of human MDA-MB-231 cells assessed as cell growth at 5X10'-6 M after 48 hrs by sulforhodamine B assay; conditions: MDA-MB-231, 48 h, read-out: Activity
M14 [3] = test: Growth inhibition of human M14 cells assessed as cell growth at 5X10'-6 M after 48 hrs by sulforhodamine B assay; conditions: M14, 48 h, read-out: Activity
U-251 [4] = test: Growth inhibition of human U251 cells assessed as cell growth at 5X10'-6 M after 48 hrs by sulforhodamine B assay; conditions: U-251, 48 h, read-out: Activity
NCI-H522 [5] = test: Growth inhibition of human NCI-H522 cells assessed as cell growth at 5X10'-9 M after 48 hrs by sulforhodamine B assay; conditions: NCI-H522, 48 h, read-out: Activity
NCI-H226 [6] = test: Growth inhibition of human NCI-H226 cells assessed as cell growth at 5X10'-9 M after 48 hrs by sulforhodamine B assay; conditions: NCI-H226, 48 h, read-out: Activity
K562 [7] = test: Growth inhibition of human K562 cells assessed as cell growth at 5X10'-9 M after 48 hrs by sulforhodamine B assay; conditions: K562, 48 h, read-out: Activity
LOX IMVI = test: Growth inhibition of human LOXIMVI cells assessed as cell growth at 5X10'-6 M after 48 hrs by sulforhodamine B assay; conditions: read-out: Activity
[8] = Growth inhibition of human HCC2998 cells assessed as cell growth at 5X10'-6 M after 48 hrs by sulforhodamine B assay; conditions: HCC 2998, 48 h, read-out: Activity
K562 [9] = test: Growth inhibition of human K562 cells assessed as cell growth at 5X10'-6 M after 48 hrs by sulforhodamine B assay; conditions: K562, 48 h, read-out: Activity
CCRF-CEM = test: Growth inhibition of human CCRF-CEM cells assessed as cell growth at 5X10'-6 M after 48 hrs by sulforhodamine B assay; conditions: read-out: Activity
MDA-MB-231 [10] = test: Growth inhibition of human MDA-MB-231 cells assessed as cell growth at 5X10'-7 M after 48 hrs by sulforhodamine B assay; conditions: MDA-MB-231, 48 h, read-out: Activity
SN12C [11] = test: Growth inhibition of human SN12C cells assessed as cell growth at 5X10'-7 M after 48 hrs by sulforhodamine B assay; conditions: read-out: Activity
OVCAR-5 = test: Growth inhibition of human OVCAR5 cells assessed as cell growth at 5X10'-7 M after 48 hrs by sulforhodamine B assay; conditions: OVCAR-5, 48 h, read-out: Activity
U-251 [12] = test: Growth inhibition of human U251 cells assessed as cell growth at 5X10'-7 M after 48 hrs by sulforhodamine B assay; conditions: U-251, 48 h, read-out: Activity
SF-268 = test: Growth inhibition of human SF268 cells assessed as cell growth at 5X10'-7 M after 48 hrs by sulforhodamine B assay; conditions: SF-268, 48 h, read-out: Activity
NCI-H522 [13] = test: Growth inhibition of human NCI-H522 cells assessed as cell growth at 5X10'-7 M after 48 hrs by sulforhodamine B assay; conditions: NCI-H522, 48 h, read-out: Activity
NCI-H460 = test: Growth inhibition of human NCI-H460 cells assessed as cell growth at 5X10'-7 M after 48 hrs by sulforhodamine B assay; conditions: NCI-H460, 48 h, read-out: Activity
SR = test: Growth inhibition of human SR cells assessed as cell growth at 5X10'-7 M after 48 hrs by sulforhodamine B assay; conditions: read-out: Activity
MOLT-4 = test: Growth inhibition of human MOLT4 cells assessed as cell growth at 5X10'-7 M after 48 hrs by sulforhodamine B assay; conditions: MOLT-4, 48 h, read-out: Activity
MDA-MB-231 [14] = test: Growth inhibition of human MDA-MB-231 cells assessed as cell growth at 5X10'-8 M after 48 hrs by sulforhodamine B assay; conditions: MDA-MB-231, 48 h, read-out: Activity
MCF7 = test: Growth inhibition of human MCF7 cells assessed as cell growth at 5X10'-8 M after 48 hrs by sulforhodamine B assay; conditions: MCF7, 48 h, read-out: Activity
PC-3 = test: Growth inhibition of human PC3 cells assessed as cell growth at 5X10'-8 M after 48 hrs by sulforhodamine B assay; conditions: PC-3, 48 h, read-out: Activity
MDA-MB-435 [15] = test: Growth inhibition of human MDA-MB-435 cells assessed as cell growth at 5X10'-8 M after 48 hrs by sulforhodamine B assay; conditions: MDA-MB-435, 48 h, read-out: Activity
U-251 [16] = test: Growth inhibition of human U251 cells assessed as cell growth at 5X10'-8 M after 48 hrs by sulforhodamine B assay; conditions: U-251, 48 h, read-out: Activity
SN12C [17] = test: Growth inhibition of human SN12C cells assessed as cell growth at 5X10'-5 M after 48 hrs by sulforhodamine B assay; conditions: read-out: Activity
OVCAR-8 = test: Growth inhibition of human OVCAR8 cells assessed as cell growth at 5X10'-5 M after 48 hrs by sulforhodamine B assay; conditions: OVCAR-8, 48 h, read-out: Activity
HCT-15 = test: Growth inhibition of human HCT15 cells assessed as cell growth at 5X10'-8 M after 48 hrs by sulforhodamine B assay; conditions: HCT-15, 48 h, read-out: Activity
[18] = Growth inhibition of human HCC2998 cells assessed as cell growth at 5X10'-8 M after 48 hrs by sulforhodamine B assay; conditions: HCC 2998, 48 h, read-out: Activity
NCI-H322M = test: Growth inhibition of human NCI-H322M cells assessed as cell growth at 5X10'-8 M after 48 hrs by sulforhodamine B assay; conditions: read-out: Activity
NCI-H226 [19] = test: Growth inhibition of human NCI-H226 cells assessed as cell growth at 5X10'-8 M after 48 hrs by sulforhodamine B assay; conditions: NCI-H226, 48 h, read-out: Activity
OVCAR-3 = test: Growth inhibition of human OVCAR3 cells assessed as cell growth at 5X10'-9 M after 48 hrs by sulforhodamine B assay; conditions: OVCAR-3, 48 h, read-out: Activity
M14 [20] = test: Growth inhibition of human M14 cells assessed as cell growth at 5X10'-9 M after 48 hrs by sulforhodamine B assay; conditions: M14, 48 h, read-out: Activity
SNB-19 = test: Growth inhibition of human SNB19 cells assessed as cell growth at 5X10'-9 M after 48 hrs by sulforhodamine B assay; conditions: SNB-19, 48 h, read-out: Activity
SF-295 = test: Growth inhibition of human SF295 cells assessed as cell growth at 5X10'-9 M after 48 hrs by sulforhodamine B assay; conditions: SF-295, 48 h, read-out: Activity

Structure (SMILES) | growth at 50 µM (MDA-MB-435 [1]) [%] | growth at 50 µM (Malme-3M) [%] | growth at 50 µM (COLO 205) [%] | growth at 5 µM (BT-549) [%] | growth at 5 µM (MDA-MB-231 [2]) [%] | growth at 5 µM (M14 [3]) [%] | growth at 5 µM (U-251 [4]) [%] | growth at 0.005 µM (NCI-H522 [5]) [%] | growth at 0.005 µM (NCI-H226 [6]) [%] | growth at 0.005 µM (K562 [7]) [%] | growth at 5 µM (LOX IMVI) [%] | growth at 5 µM [8] [%] | growth at 5 µM (K562 [9]) [%] | growth at 5 µM (CCRF-CEM) [%] | growth at 0.5 µM (MDA-MB-231 [10]) [%] | growth at 0.5 µM (SN12C [11]) [%] | growth at 0.5 µM (OVCAR-5) [%] | growth at 0.5 µM (U-251 [12]) [%] | growth at 0.5 µM (SF-268) [%] | growth at 0.5 µM (NCI-H522 [13]) [%] | also measured
O=C(Nc1cccc(-n2cc(-c3ccncc3)c(-c3ccc(Cl)c(O)c3)n2)c1)c1ccc(N2CCOCC2)c(C(F)(F)F)c1 | 1 | -40 | 65 | 70 | 8 | 18 | 16 | 93 | 98 | 96 | 10 | 53 | 11 | 26 | 67 | 97 | 98 | 94 | 104 | 92 | growth at 0.5 µM (NCI-H460): 98%; growth at 0.5 µM (SR): 84%; growth at 0.5 µM (MOLT-4): 87%; growth at 0.05 µM (MDA-MB-231 [14]): 93%; growth at 0.05 µM (MCF7): 85%; growth at 0.05 µM (PC-3): 96%; growth at 0.05 µM (MDA-MB-435 [15]): 93%; growth at 0.05 µM (U-251 [16]): 101%; growth at 50 µM (SN12C [17]): 39%; growth at 50 µM (OVCAR-8): 26%; growth at 0.05 µM (HCT-15): 99%; growth at 0.05 µM [18]: 99%; growth at 0.05 µM (NCI-H322M): 104%; growth at 0.05 µM (NCI-H226 [19]): 95%; growth at 0.005 µM (OVCAR-3): 98%; growth at 0.005 µM (M14 [20]): 96%; growth at 0.005 µM (SNB-19): 97%; growth at 0.005 µM (SF-295): 93%
O=C(Nc1cccc(-n2cc(-c3ccncc3)c(-c3ccc(Cl)c(O)c3)n2)c1)Nc1cc(C(F)(F)F)cc(C(F)(F)F)c1 | -69 | -64 | -91 | -65 | -68 | -47 | -83 | 101 | 98 | 105 | -94 | -43 | -5 | 3 | 74 | 72 | 83 | 49 | 73 | 65 | growth at 0.5 µM (NCI-H460): 45%; growth at 0.5 µM (SR): 72%; growth at 0.5 µM (MOLT-4): 81%; growth at 0.05 µM (MDA-MB-231 [14]): 92%; growth at 0.05 µM (MCF7): 85%; growth at 0.05 µM (PC-3): 89%; growth at 0.05 µM (MDA-MB-435 [15]): 96%; growth at 0.05 µM (U-251 [16]): 93%; growth at 50 µM (SN12C [17]): -48%; growth at 50 µM (OVCAR-8): -53%; growth at 0.05 µM (HCT-15): 93%; growth at 0.05 µM [18]: 105%; growth at 0.05 µM (NCI-H322M): 104%; growth at 0.05 µM (NCI-H226 [19]): 85%; growth at 0.005 µM (OVCAR-3): 109%; growth at 0.005 µM (M14 [20]): 104%; growth at 0.005 µM (SNB-19): 90%; growth at 0.005 µM (SF-295): 92%
COc1cc(-c2nn(-c3cccc(NC(=O)c4cccc(C(F)(F)F)c4)c3)cc2-c2ccncc2)ccc1Cl | -37 | 29 | -72 | 34 | 9 | 11 | 14 | 95 | 95 | 94 | 8 | 21 | 9 | 6 | 77 | 92 | 85 | 88 | 88 | 79 | growth at 0.5 µM (NCI-H460): 90%; growth at 0.5 µM (SR): 65%; growth at 0.5 µM (MOLT-4): 91%; growth at 0.05 µM (MDA-MB-231 [14]): 97%; growth at 0.05 µM (MCF7): 90%; growth at 0.05 µM (PC-3): 99%; growth at 0.05 µM (MDA-MB-435 [15]): 100%; growth at 0.05 µM (U-251 [16]): 94%; growth at 50 µM (SN12C [17]): 24%; growth at 50 µM (OVCAR-8): 10%; growth at 0.05 µM (HCT-15): 96%; growth at 0.05 µM [18]: 100%; growth at 0.05 µM (NCI-H322M): 88%; growth at 0.05 µM (NCI-H226 [19]): 93%; growth at 0.005 µM (OVCAR-3): 105%; growth at 0.005 µM (M14 [20]): 95%; growth at 0.005 µM (SNB-19): 100%; growth at 0.005 µM (SF-295): 94%
